Data as given in article PMC9496453 (2022).

Assays:
[1] = test system: OTC5 (DNA, aptamer) GACGACATTCCGTTGATCTCTCCCTTTTGGGTTGGTGTCGTC; experiment: intrinsic fluorescence enhancement titration; conditions: 50 mM NaCl, 2 mM MgCl2, 10 mM Tris HCl pH 8.3, binding lost without Mg2+
[2] = test system: OTC5 (DNA, aptamer) GACGACATTCCGTTGATCTCTCCCTTTTGGGTTGGTGTCGTC; experiment: ITC; conditions: 2 mM Mg2+; 10 mM Tris pH 8.3; 0.2 μM at pH 6.0 (10 mM MES)

## CN(C)[C@@H]1C(=O)C(C(N)=O)=C(O)[C@@]2(O)C(=O)C3=C(O)c4c(O)cccc4[C@@](C)(O)[C@H]3C[C@@H]12
[1]; 0.36 µM at acidic pH (printed 6.3)
  KD: 160 nM

## CN(C)[C@@H]1C(=O)C(C(N)=O)=C(O)[C@@]2(O)C(=O)C3=C(O)c4c(O)cccc4[C@@](C)(O)[C@H]3[C@H](O)[C@@H]12
[2]
  KD: 30 nM
[1]; 0.14 µM at acidic pH (printed 6.3)
  KD: 60 nM

## C[C@H]1c2cccc(O)c2C(=O)C2=C(O)[C@]3(O)C(=O)C(C(N)=O)=C(O)[C@@H](N(C)C)[C@@H]3[C@@H](O)[C@@H]21
[1]; 0.39 µM at pH 6.0
  KD: 240 nM
